Experimental data from paper PMC3750913 (BMC Microbiology, 2013).
Where two headings read alike, the source gives them in different places.

Tests used:
[1] = system: RSV; test: Viral inactivation assay; type: cell-based, respiratory syncytial virus; details: for block of infection after pre-incubation of free virus with compound: RSV, CHLA 1 μM, PUG 2 μM, Figure 3
[2] = system: HCMV; test: Analysis of drug effects post viral entry; type: cell-based, human cytomegalovirus; details: for protection, treatment post-infection: HCMV, Figure 6
[3] = system: ADV-5; test: Dose-response antiviral assay (plaque assay); type: cell-based, human adenovirus type-5; details: Human adenovirus sp.; ADV-5 in A549 cells, co-treatment with viral inoculum; read-out: Antiviral effect EC50
[4] = system: MV; test: Viral penetration assay; type: cell-based, measles virus
[5] = system: HCMV; test: Viral inactivation assay; type: cell-based, human cytomegalovirus
[6] = system: MV; test: Viral attachment assay, method 2 (virus-specific cellular ELISA); type: cell-based, measles virus; details: MV MOI 1, ELISA, 4°C; highest inhibitory concentration of the compounds
[7] = system: HCMV; test: Viral cell-to-cell spread assay; type: cell-based, human cytomegalovirus; details: for effect on viral plaque size (cell-to-cell spread): HCMV, Figure 7
[8] = system: RSV; test: Analysis of drug effects post viral entry; type: cell-based, respiratory syncytial virus; details: for protection, treatment post-infection: RSV, Figure 6
[9] = system: HCV; test: Analysis of drug effects post viral entry; type: cell-based, hepatitis C virus; details: for protection, treatment post-infection: HCV, Figure 6; for inhibition at 50 µM: Hepatitis C virus, Huh7.5, read-out: Window of antiviral effects: Post-infection, inhibitory effect relative to DMSO control
[10] = system: DENV-2; test: Viral attachment assay, method 1 (host cell infection); type: cell-based, dengue virus type 2; details: DENV-2, method 1, 4°C; Figure 4
[11] = system: RSV; test: Viral attachment assay, method 2 (virus-specific cellular ELISA); type: cell-based, respiratory syncytial virus; details: RSV MOI 5, ELISA, 4°C; highest inhibitory concentration of the compounds
[12] = system: DENV-2; test: Dose-response antiviral assay (immunohistochemical staining plaque assay); type: cell-based, dengue virus type 2; details: DENV-2, Vero cells
[13] = system: DENV-2; test: Analysis of drug effects post viral entry; type: cell-based, dengue virus type 2; details: DENV-2; Figure 6
[14] = system: HCV; test: Viral penetration assay; type: cell-based, hepatitis C virus; details: for inhibition at 50 µM: Hepatitis C virus, Huh7.5, read-out: Window of antiviral effects: Penetration, inhibitory effect relative to DMSO control
[15] = system: MV; test: microbe, parasite or virus in culture; type: cell-based, measles virus; details: for EC50: MV in CHO-SLAM cells, co-treatment with viral inoculum, read-out: Antiviral effect EC50; for SI (selectivity index, CC50/EC50): MV, CHO-SLAM cells
[16] = system: DENV-2; test: Viral inactivation assay; type: cell-based, dengue virus type 2; details: Dengue virus
[17] = system: HCMV; test: Dose-response antiviral assay (plaque assay); type: cell-based, human cytomegalovirus; details: for SI (selectivity index, CC50/EC50): HCMV, HEL cells; for EC50: HCMV in HEL cells, co-treatment with viral inoculum, read-out: Antiviral effect EC50
[18] = system: HCMV; test: Viral penetration assay; type: cell-based, human cytomegalovirus; details: for protection of the host cell from infection during virus penetration: HCMV, shift 4°C to 37°C, Figure 4
[19] = system: MV; test: Analysis of drug effects post viral entry; type: cell-based, measles virus; details: for protection, treatment post-infection: MV, Figure 6
[20] = system: HCV; test: Viral attachment assay, method 2 (virus-specific cellular ELISA); type: cell-based, hepatitis C virus; details: HCV MOI 0.1, ELISA, 4°C; highest inhibitory concentration of the compounds
[21] = system: MV; test: Viral cell-to-cell spread assay; type: cell-based, measles virus; details: for effect on viral plaque size (cell-to-cell spread): MV, Figure 7
[22] = system: MV; test: Viral attachment assay, method 1 (host cell infection); type: cell-based, measles virus; details: for inhibition of entry (virus attachment): MV, method 1, 4°C, Figure 4, PUG more effective than CHLA
[23] = XTT cytotoxicity assay; type: cell-based
Method: Cells (1 × 10^4 per well of 96-well plate) were treated with the test compounds for 3 days. Treatment effects on cell viability (%) and the 50% cytotoxic concentration (CC50) values of the test compounds were determined based on the XTT (2,3-bis[2-methoxy-4-nitro-5-sulfophenyl]-5-phenylamino)-carbonyl]-2H-tetrazolium hydroxide) assay as previously reported.

[24] = system: RSV; test: Viral penetration assay; type: cell-based, respiratory syncytial virus
[25] = system: RSV; test: Viral cell-to-cell spread assay; type: cell-based, respiratory syncytial virus; details: for effect on viral plaque size (cell-to-cell spread): RSV, Figure 7
[26] = human respiratory syncytial virus, HEp-2, read-out: Window of antiviral effects: Free particle, inhibitory effect relative to DMSO control
[27] = Measles morbillivirus, read-out: Window of antiviral effects: Penetration, inhibitory effect relative to DMSO control
[28] = Human betaherpesvirus 5, read-out: inhibition of infection after pre-incubation of free virus with compound
[29] = Human betaherpesvirus 5, HEL, read-out: Window of antiviral effects: Cell-to-cell spread, inhibitory effect relative to DMSO control
[30] = DENV2, Vero, read-out: Window of antiviral effects: Free particle, inhibitory effect relative to DMSO control
[31] = DENV2, read-out: inhibition of infection after pre-incubation of free virus with compound
[32] = Human betaherpesvirus 5, HEL, read-out: Window of antiviral effects: Penetration, inhibitory effect relative to DMSO control
[33] = Measles morbillivirus, read-out: Window of antiviral effects: Post-infection, inhibitory effect relative to DMSO control
[34] = Measles morbillivirus, read-out: Window of antiviral effects: Cell-to-cell spread, inhibitory effect relative to DMSO control
[35] = Measles morbillivirus, read-out: Window of antiviral effects: Attachment Method 1, inhibitory effect relative to DMSO control
[36] = human respiratory syncytial virus, HEp-2, read-out: Window of antiviral effects: Penetration, inhibitory effect relative to DMSO control
[37] = human respiratory syncytial virus, HEp-2, read-out: Window of antiviral effects: Cell-to-cell spread, inhibitory effect relative to DMSO control

O=C1O[C@H]2[C@@H]3OC(=O)c4cc(O)c(O)c(O)c4-c4c(O)c(O)c5oc(=O)c6c(c(O)c(O)c7oc(=O)c4c5c76)-c4c(cc(O)c(O)c4O)C(=O)OC[C@H]3OC(O)[C@@H]2OC(=O)c2cc(O)c(O)c(O)c2-c2c1cc(O)c(O)c2O (mixture of isomers) [PUG, punicalagin]
block of infection after pre-incubation of free virus with compound [1]: 60 – 80%
inhibition at 2 µM [1, 26]: > 75%
protection, treatment post-infection [2]: 80 – 100%
inhibition at 40 µM ([2]; Human betaherpesvirus 5, HEL, read-out: Window of antiviral effects: Post-infection, inhibitory effect relative to DMSO control): > 75%
EC50 [3]: 197 ± 20.1 µM
protection of the host cell from infection during virus penetration ([4]; MV, shift 4°C to 37°C, Figure 4): 50 – 90%
inhibition at 50 µM [4, 27]: > 75%
inhibition at 40 µM ([5]; Human betaherpesvirus 5, HEL, read-out: Window of antiviral effects: Free particle, inhibitory effect relative to DMSO control): > 75%
inhibition at 40 µM [5, 28]: ~100%
Window of antiviral effects: Attachment Method 2, inhibitory effect relative to DMSO control [6]: ++ (++ 50–75%)
effect on viral plaque size (cell-to-cell spread) [7]: near initial size
inhibition at 40 µM [7, 29]: > 75%
protection, treatment post-infection [8]: < 25%
inhibition at 2 µM ([8]; human respiratory syncytial virus, HEp-2, read-out: Window of antiviral effects: Post-infection, inhibitory effect relative to DMSO control): < 25%
protection, treatment post-infection [9]: 80 – 100%
inhibition at 50 µM [9]: > 75%
inhibition of virus attachment [10]: 90 – 100%
Window of antiviral effects: Attachment Method 2, inhibitory effect relative to DMSO control [11]: +++ (+++ > 75%)
SI (selectivity index, CC50/EC50) [12]: 19.27
protection, treatment post-infection [13]: < 25%
protection of the host cell from infection during virus penetration ([14]; HCV, shift 4°C to 37°C, Figure 4): 50 – 90%
inhibition at 50 µM [14]: > 75%
EC50 [15]: 25.5 ± 2.94 µM
SI (selectivity index, CC50/EC50) [15]: 11.13
EC50 ([15]; Measles morbillivirus): < 35 µM
inhibition at 25 µM [16, 30]: > 75%
inhibition at 25 µM [16, 31]: ~100%
SI (selectivity index, CC50/EC50) [17]: 17.86
protection of the host cell from infection during virus penetration [18]: 50 – 90%
inhibition at 40 µM [18, 32]: 50 to 75%
protection, treatment post-infection [19]: 80 – 100%
inhibition at 50 µM [19, 33]: > 75%
Window of antiviral effects: Attachment Method 2, inhibitory effect relative to DMSO control [20]: +++ (+++ > 75%)
effect on viral plaque size (cell-to-cell spread) [21]: near initial size
inhibition at 50 µM [21, 34]: > 75%
inhibition of entry (virus attachment) [22]: 50 – 80%
inhibition at 50 µM [22, 35]: > 75%
CC50 at 3 days ([23]; African green monkey, Vero cells, XTT assay, 3 days treatment, read-out: CC50): 151 ± 9.31 µM
CC50 at 3 days ([23]; Chinese hamster, CHO-SLAM cells, XTT assay, 3 days treatment, read-out: CC50): 284 ± 11.5 µM
CC50 at 3 days ([23]; human, A549 cells, 3 days treatment): 319 ± 4.99 µM
CC50 at 3 days ([23]; human, HEL cells, 3 days treatment): 299 ± 9.14 µM
CC50 at 3 days ([23]; human, HEp-2 cells, 3 days treatment): 265 ± 23.7 µM
CC50 at 3 days ([23]; human, Huh-7.5 cells, 3 days treatment): 223 ± 3.41 µM
protection of the host cell from infection during virus penetration ([24]; RSV, shift 4°C to 37°C, Figure 4): 50 – 90%
inhibition at 2 µM [24, 36]: > 75%
effect on viral plaque size (cell-to-cell spread) [25]: unaffected and expanded further
inhibition at 2 µM [25, 37]: < 25%

O=C(O)C[C@@H]1C(=O)O[C@H]2[C@@H]3OC(=O)c4cc(O)c(O)c(O)c4-c4c(cc(O)c(O)c4O)C(=O)OC[C@H]2O[C@@H](OC(=O)c2cc(O)c(O)c(O)c2)[C@@H]3OC(=O)c2cc(O)c(O)c3c2[C@H]1[C@H](O)C(=O)O3 [CHLA, chebulagic acid]
block of infection after pre-incubation of free virus with compound [1]: 60 – 80%
inhibition at 1 µM [1, 26]: > 75%
protection, treatment post-infection [2]: 80 – 100%
EC50 [3]: 198 ± 14.1 µM
inhibition at 90 µM [4, 27]: 50 to 75%
inhibition at 60 µM [5, 28]: ~100%
Window of antiviral effects: Attachment Method 2, inhibitory effect relative to DMSO control [6]: ++ (++ 50–75%)
effect on viral plaque size (cell-to-cell spread) [7]: near initial size
inhibition at 60 µM [7, 29]: > 75%
protection, treatment post-infection [8]: < 25%
protection, treatment post-infection [9]: 80 – 100%
inhibition at 50 µM [9]: > 75%
inhibition of virus attachment [10]: 90 – 100%
Window of antiviral effects: Attachment Method 2, inhibitory effect relative to DMSO control [11]: +++ (+++ > 75%)
SI (selectivity index, CC50/EC50) [12]: 12.18
protection, treatment post-infection [13]: < 25%
inhibition at 50 µM [14]: > 75%
EC50 [15]: 34.4 ± 4.35 µM
SI (selectivity index, CC50/EC50) [15]: 10.22
EC50 ([15]; Measles morbillivirus): < 35 µM
inhibition at 25 µM [16, 30]: > 75%
inhibition at 25 µM [16, 31]: ~100%
EC50 [17]: 25.5 ± 1.51 µM
SI (selectivity index, CC50/EC50) [17]: 12.01
EC50 ([17]; Human betaherpesvirus 5, HEL): < 35 µM
protection of the host cell from infection during virus penetration [18]: 50 – 90%
inhibition at 60 µM [18, 32]: 50 to 75%
protection, treatment post-infection [19]: 80 – 100%
inhibition at 90 µM [19, 33]: > 75%
Window of antiviral effects: Attachment Method 2, inhibitory effect relative to DMSO control [20]: +++ (+++ > 75%)
effect on viral plaque size (cell-to-cell spread) [21]: near initial size
inhibition at 90 µM [21, 34]: > 75%
inhibition of entry (virus attachment) [22]: 50 – 80%
inhibition at 90 µM [22, 35]: 50 to 75%
CC50 at 3 days ([23]; African green monkey): 160 ± 7.46 µM
CC50 at 3 days ([23]; Chinese hamster): 352 ± 4.54 µM
inhibition at 1 µM [24, 36]: 50 to 75%
effect on viral plaque size (cell-to-cell spread) [25]: unaffected and expanded further
inhibition at 1 µM [25, 37]: < 25%
